≈ marks a conversion by molar mass, not a printed value. Counter-ions that a name gives are not always drawn. Like-named read-outs stand apart in the source and are kept apart here.
Key:
[1] = test system: Staphylococcus aureus subsp. aureus (ATCC29213); assay: MIC, broth microdilution (CLSI), Staphylococcus aureus ATCC29213; format: cell-based; details: for MIC: Staphylococcus aureus
[2] = test system: E. coli RNase P RNA, M1 RNA; assay: Inhibition of bacterial RNase P activity, IC50 determination (cleavage of pATSerUG by M1 RNA); format: biochemical; details: NI: No inhibition
[3] = test system: Escherichia coli (ATCC25922); assay: MIC, broth microdilution (CLSI), Escherichia coli; details: for MIC: Escherichia coli, ATCC25922, read-out: E. coli ATCC 25922 MIC, Table XIII
Experimental: Initial minimal inhibitory concentration (MIC) tests were made on two bacterial strains: • Escherichia coli (ATCC25922) • Staphylococcus aureus (ATCC25923).
MIC values were determined using the standard broth microdilution procedure based on the guidelines by the Clinical and Laboratory Standards Institute (CLSI). Briefly, the compounds were dissolved in DMSO to 10 mM. They were diluted in cation-adjusted Mueller-Hinton broth (CAMHB) to four times the highest concentration tested. A serial two-fold dilution in CAMHB was done in microdilution plates. The inoculum of bacterial strain to be tested was prepared by making a suspension of colonies from an 18 to 24 hours old plate in CAMHB. The inoculum was diluted so that, after inoculation, each well contained approximately 5×10^5 CFU/mL. To a volume of 50 μl compound in CA 3 an equal volume of inoculum was added. The tray was sealed in a plastic bag and incubated at 35° C. for 16 to 20 hours. To aid in the detection of growth the dye resazurin was added to a final concentration 0.001% and incubated at room temperature for 1 h. Reduction of resazurin, and therefore bacterial growth, was seen as a change from blue to pink.

[4] = ATCC29213, Table XIII, read-out: S. aureus ATCC 29213 MIC
[5] = ATCC29213, read-out: S. aureus ATCC 29213 MIC, Table XIII

SMILES | MIC [1, 4] [µg/mL] | IC50 [2] [µM] | MIC [3] [µg/mL] | MIC [1, 5] [µg/mL] | S. aureus ATCC 29213 MIC ([1]; Table XIII, hydrochloride salt) [µg/mL] | IC50 ([2]; hydrochloride salt) [µM] | E. coli ATCC 25922 MIC ([3]; Table XIII, hydrochloride salt) [µg/mL]
NCCCNCCC(c1cccc(OC(F)(F)F)c1)c1cn(C2CCCCC2)c2ccc(C(N)=O)cc12 (stereo not shown) [Compound 376, 3-(3-((3-aminopropyl)amino)-1-(3-(trifluoromethoxy)phenyl)propyl)-1-cyclohexyl-1H-indole-5-carboxamide] | 16 (≈ 31 µM) | 40 | 32 (≈ 61.9 µM) | – | – | – | –
Cc1cccc(C(CCNC2CCNCC2)c2cn(C3CCCCC3)c3ccccc23)c1 (stereo not shown) [Compound 309, N-(3-(1-cyclohexyl-1H-indol-3-yl)-3-(m-tolyl)propyl)piperidin-4-amine hydrochloride salt] | – | 39 | 4 | 8 | – | – | –
Cl.Cl.NCCCNCCC(c1cccc(OC(F)(F)F)c1)c1cn(C2CCCCC2)c2ccccc12 (stereo not shown) [Compound 370, N1-(3-(1-cyclohexyl-1H-indol-3-yl)-3-(3-(trifluoromethoxy)phenyl)propyl) propane-1,3-diamine salt] | 4 | 8.4 | 4 | – | – | – | –
Cc1cccc(C(CCNC2CCC(N)CC2)c2cn(C3CCCCC3)c3ccccc23)c1 [Compound 395, (1S,4S)- -N1-(3-(1-cyclohexyl-1H-indol-3-yl)-3-(m-tolyl)propyl) cyclohexane-1,4-diamine hydrochloride salt] | – | – | – | – | 1 | 8.2 | 8
Cl.Cl.NCCCNCCC(c1cccc(C(F)(F)F)c1)c1cn(C2CCCCC2)c2ccccc12 (stereo not shown) [Compound 351, N1-(3-(1-cyclohexyl-1H-indol-3-yl)-3-(3-(trifluoromethyl)phenyl)propyl)propane-1,3-diamine hydrochloride salt] | 4 | 16 | 4 | – | – | – | –
Cc1cccc(C(CCNCCCNS(=O)(=O)c2ccc(F)cc2)c2cn(C3CCCCC3)c3ccccc23)c1 (stereo not shown) [Compound 365, N-(3-((3-(1-cyclohexyl-1H-indol-3-yl)-3-(m-tolyl)propyl)amino)propyl)-4-fluorobenzenesulfonamide] | 4 (≈ 7.12 µM) | 21 | > 128 | – | – | – | –
NC1CCC(NCCC(c2cccc(OC(F)(F)F)c2)c2cn(C3CCCCC3)c3ccccc23)CC1 [Compound 393, (1S,4S)- -N1-(3-(1-cyclohexyl-1H-indol-3-yl)-3-(3-(trifluoromethoxy)phenyl)propyl)cyclohexane-1,4-diamine hydrochloride salt] | – | – | 8 | 4 | – | 16 | –
Cc1cccc(-c2ccc3c(c2)c(CCNCCCN)cn3C2CCCCC2)c1.Cl.Cl [Compound 384, N1-(2-(1-cyclohexyl-5-(m-tolyl)-1H-indol-3-yl)ethyl)propane-1,3-diamine hydrochloride salt] | 4 | 19 | 4 | – | – | – | –
Cc1cccc(CC(CCNC2CCC(N)CC2)c2cn(C3CCCCC3)c3ccccc23)c1.Cl.Cl [Compound 408, (1R,4R)-N1-(3-(1-cyclohexyl-1H-indol-3-yl)-4-(m-tolyl)butyl)cyclohexane-1,4-diamine hydrochloride salt] | 4 | 21 | 8 | – | – | – | –
Cl.Cl.N#Cc1ccc2c(c1)c(C(CCN[C@H]1CC[C@H](N)CC1)C1CCCCC1)cn2C1CCCCC1 (stereo partly drawn) [Compound 407, 3-(3-(((1R,4R)-4-aminocyclohexyl)amino)-1-cyclohexylpropyl)-1-cyclohexyl-1H-indole-5-carbonitrile salt] | 4 | 23 | 8 | – | – | – | –
Cc1cccc(C(CCNC2CCNCC2)c2cn(CC3CCCCC3)c3ccc([N+](=O)[O-])cc23)c1 (stereo not shown) [Compound 428, N-(3-(1-(cyclohexylmethyl)-5-nitro-1H-indol-3-yl)-3-(m-tolyl)propyl)piperidin-4-amine hydrochloride salt] | – | 15 | 32 | 4 | – | – | –
Cl.Cl.N#Cc1ccc2c(c1)c(C(CCNCCCN)C1CCCCC1)cn2C1CCCCC1 (stereo not shown) [Compound 382, 3-(3-((3 - aminopropyl)amino)-1-cyclohexylpropyl)-1-cyclohexyl-1H-indole-5-carbonitrile hydrochloride salt] | 4 | 20 | 4 | – | – | – | –
Cc1cccc(C(CCNC2CCN(C(N)=O)CC2)c2cn(C3CCCCC3)c3ccccc23)c1.Cl.Cl (stereo not shown) [Compound 374, 4-((3-(1-cyclohexyl-1H-indol-3-yl)-3-(m-tolyl)propyl)amino)piperidine-1-carboxamide hydrochloride salt] | 16 | 53 | > 128 | – | – | – | –
Cc1cccc(C(CCNCCCN)c2cn(C3CCCCC3)c3ccccc23)c1.Cl.Cl (stereo not shown) [Compound 310, N1-(3-(1-cyclohexyl-1H-indol-3-yl)-3-(m-tolyl)propyl)propane-1,3-diamine hydrochloride salt] | 4 | – | 4 | – | – | 18 | –
Cl.Cl.c1cncc(C(CCNC2CCNCC2)c2cn(CC3CCCCC3)c3ccccc23)c1 (stereo not shown) [Compound 320, N-(3-(1-(cyclohexylmethyl)-1H-indol-3-yl)-3-(pyridin-3-yl)propyl) piperidin-4-amine hydrochloride salt] | 128 | – | 128 | – | – | – | –
NC1CCC(NCCC(c2cccnc2)c2cn(C3CC4CCC3C4)c3ccccc23)CC1 (stereo not shown) [Compound 324, N1-(3-(1-(bicyclo[2.2.1]heptan-2-yl)-1H-indol-3-yl)-3-(pyridin-3-yl)propyl)cyclohexane-1,4-diamine hydrochloride salt] | – | – | 64 | 32 | – | – | –

SMILES | MIC [1, 4] [µg/mL] | IC50 [2] [µM] | MIC [3] [µg/mL] | MIC [1, 5] [µg/mL] | S. aureus ATCC 29213 MIC ([1]; Table XIII, hydrochloride salt) [µg/mL] | IC50 ([2]; hydrochloride salt) [µM] | E. coli ATCC 25922 MIC ([3]; Table XIII, hydrochloride salt) [µg/mL]
Cl.Cl.NC1CCC(NCCC(c2cccnc2)c2cn(C3CCCCC3)c3ccccc23)CC1 (stereo not shown) [Compound 330, N1-(3-(1-cyclohexyl-1H-indol-3-yl)-3-(pyridin-3-yl)propyl)cyclohexane-1,4-diamine hydrochloride salt] | 64 | – | > 128 | – | – | – | –
CC(=O)N1CCC(N(CCC(c2cccc(C)c2)c2cn(C3CCCCC3)c3ccccc23)C(C)=O)CC1 (stereo not shown) [Compound 354, N-(1-acetylpiperidin-4-yl)-N-(3-(1-cyclohexyl-1H-indol-3-yl)-3-(m-tolyl)propyl)acetamide salt] | 128 | – | > 128 | – | – | – | –
Cc1cccc(C(CCOC2OC(CO)C(O)C(O)C2O)c2cn(C3CCCCC3)c3ccccc23)c1 (stereo not shown) [Compound 388, 2-(3-(1-cyclohexyl-1H-indol-3-yl)-3-(m-tolyl)propoxy)-6-(hydroxymethyl) tetrahydro-2H-pyran-3,4,5-triol] | 16 (≈ 31.4 µM) | – | > 128 | – | – | – | –
Cc1cccc(C(CCNC2CCNCC2)c2cn(C3CCNCC3)c3ccccc23)c1 (stereo not shown) [Compound 317, N-(3-(1-(piperidin-4-yl)-1H-indol-3-yl)-3-(m-tolyl)propyl)piperidin-4-amine hydrochloride salt] | – | – | > 128 | 64 | – | – | –
Cc1cccc(C(CCNCCN)c2cn(C3CCCCC3)c3ccccc23)c1.Cl.Cl (stereo not shown) [Compound 347, N1-(3-(1-cyclohexyl-1H-indol-3-yl)-3-(m-tolyl)propyl)ethane-1,2-diamine hydrochloride salt] | 8 | – | 16 | – | – | – | –
CCN(Cc1cn(CC2CCCCC2)c2ccccc12)CC1CCN(C)CC1 [Compound 303, N-((1-(cyclohexylmethyl)-1H-indol-3-yl)methyl)-N-((1-methylpiperidin-4-yl)methyl)ethanamine] | 128 (≈ 335 µM) | – | 128 (≈ 335 µM) | – | – | – | –
Cc1cccc(C(CCNCCCN)c2cn(CC3CCNCC3)c3ccccc23)c1 (stereo not shown) [Compound 314, N1-(3-(1-(piperidin-4-ylmethyl)-1H-indol-3-yl)-3-(m-tolyl)propyl)propane-1,3-diamine hydrochloride salt] | – | – | > 128 | 16 | – | – | –
Cc1cccc(C(CCNCCCO)c2cn(C3CCCCC3)c3ccccc23)c1 (stereo not shown) [Compound 366, 3-((3-(1-cyclohexyl-1H-indol-3-yl)-3-(m-tolyl)propyl)amino) propan-1-ol] | 16 (≈ 39.5 µM) | – | > 128 | – | – | – | –
Cc1cccc(C(CCNC2CCC(N)CC2)c2cn(CC3CCNCC3)c3ccccc23)c1 (stereo not shown) [Compound 313, N1-(3-(1-(piperidin-4-ylmethyl)-1H-indol-3-yl)-3-(m-tolyl)propyl)cyclohexane-1,4-diamine hydrochloride salt] | – | – | > 128 | 16 | – | – | –
Cl.Cl.N[C@H]1CC[C@H](NCCC(c2cn(C3CCCCC3)c3ccccc23)C2CCCCC2)CC1 (stereo partly shown) [Compound 378] | 4 | – | 8 | – | – | – | –
Cl.Cl.c1cncc(C(CCNC2CCNCC2)c2cn(C3CCCCC3)c3ccccc23)c1 (stereo not shown) [Compound 329, N-(3-(1-cyclohexyl-1H-indol-3-yl)-3-(pyridin-3-yl)propyl)piperidin-4-amine hydrochloride salt] | 32 | – | 64 | – | – | – | –
Cc1cccc(C(CCNCCCN)c2cn(CC3CCCCC3)c3ccccc23)c1.Cl.Cl (stereo not shown) [Compound 346, N1-(3-(1-(cyclohexylmethyl)-1H-indol-3-yl)-3-(m-tolyl)propyl)propane-1,3-diamine hydrochloride salt] | 8 | – | 8 | – | – | – | –
Cl.Cl.NCCCNCCC(c1cn(C2CCCCC2)c2ccccc12)C1CC1 (stereo not shown) [Compound 422, N1-(3-(1-cyclohexyl-1H-indol-3-yl)-3-cyclopropylpropyl) propane-1,3-diamine hydrochloride salt] | 32 | – | 16 | – | – | – | –
CN(Cc1cn(CC2CCCCC2)c2ccccc12)CC1CCNCC1 [Compound 301, 1-(1-(cyclohexylmethyl)-1H-indol-3-yl)-N-methyl-N-(piperidin-4-ylmethyl)methanamine hydrochloride salt] | – | – | 128 | 128 | – | – | –
Cl.Cl.NCCCNCCC(c1ccncc1)c1cn(C2CCCCC2)c2ccccc12 (stereo not shown) [Compound 339, N1-(3-(1-cyclohexyl-1H-indol-3-yl)-3-(pyridin-4-yl)propyl)propane-1,3-diamine hydrochloride salt] | 32 | – | 128 | – | – | – | –

— US20210246115A1 (Bioimics AB, priority 2017, published 2021)
